According to patent US8946439B2, “Amide compounds, compositions and uses thereof” (Evotec AG, priority 2008, dated 2015):
Like-named read-outs stand apart in the source and are kept apart here.

Tests used:
hP2X2/3H = biological target: T1, hP2X2/3H (Homo sapiens, UniProt P56373+Q9UBL9); experiment: Calcium uptake assay (P2X antagonist assay), P2X2/3 heteromer; format: cell-based; conditions: hP2X2/3H
T1 construct: expressed in transfected cells; host or cells: e.g. HEK293 or 1321N1
T1 sequence (Q9UBL9 1-471): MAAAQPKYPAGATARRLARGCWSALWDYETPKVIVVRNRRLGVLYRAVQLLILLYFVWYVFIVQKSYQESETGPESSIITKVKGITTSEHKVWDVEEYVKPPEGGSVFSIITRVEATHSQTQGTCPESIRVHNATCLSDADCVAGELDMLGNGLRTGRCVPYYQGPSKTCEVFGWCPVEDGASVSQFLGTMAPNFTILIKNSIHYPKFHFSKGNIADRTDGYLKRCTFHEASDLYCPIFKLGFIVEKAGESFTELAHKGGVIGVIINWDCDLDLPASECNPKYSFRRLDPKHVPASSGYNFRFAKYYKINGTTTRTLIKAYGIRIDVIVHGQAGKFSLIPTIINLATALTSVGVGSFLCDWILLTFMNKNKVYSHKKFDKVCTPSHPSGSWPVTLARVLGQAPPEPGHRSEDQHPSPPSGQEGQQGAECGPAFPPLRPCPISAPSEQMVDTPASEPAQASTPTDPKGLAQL
T1 sequence (P56373 1-397): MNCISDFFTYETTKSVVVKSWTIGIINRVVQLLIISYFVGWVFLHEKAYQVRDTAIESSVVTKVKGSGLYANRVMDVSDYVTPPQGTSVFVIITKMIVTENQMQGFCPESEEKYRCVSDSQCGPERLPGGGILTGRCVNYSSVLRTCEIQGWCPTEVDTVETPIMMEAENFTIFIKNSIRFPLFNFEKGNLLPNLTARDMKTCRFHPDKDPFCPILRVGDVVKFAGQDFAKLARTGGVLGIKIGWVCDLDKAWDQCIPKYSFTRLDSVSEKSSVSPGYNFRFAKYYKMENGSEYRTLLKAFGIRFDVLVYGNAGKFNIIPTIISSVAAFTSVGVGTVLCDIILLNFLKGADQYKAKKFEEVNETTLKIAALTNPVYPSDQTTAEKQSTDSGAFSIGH
How it was run: (§1)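 Stably or transiently transfected HEK293 or 1321N1 cells; the heteromer is made by adding P2X3 to a P2X2-stable line, with heteromer function isolated pharmacologically. The peak-minus-baseline FLIPR calcium signal gives % inhibition and a 4-parameter-logistic IC50.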

hP2X3 = biological target: T2, hP2X3 (Homo sapiens, UniProt P56373); experiment: Calcium uptake assay (P2X antagonist assay), P2X3 homomer; format: cell-based; conditions: hP2X3
T2 construct: expressed in transfected cells; host or cells: e.g. HEK293 or 1321N1
T2 sequence (P56373 1-397): T1 sequence (P56373 1-397)
How it was run: as §1

[1] = Ca influx (calcium uptake assay), read-out: IC50 hP2X2/3H
[2] = Ca influx (calcium uptake assay), read-out: IC50 hP2X3
[3] = calcium uptake assay, read-out: IC50 hP2X2/3H (nM), Ca Influx
[4] = calcium uptake assay, read-out: IC50 hP2X3 (nM), Ca Influx

Row | Structure (SMILES) | IC50 (hP2X2/3H; [1]) | IC50 (hP2X3; [2]) | IC50 (hP2X2/3H; [3]) | IC50 (hP2X3; [4])
1 | Cc1ccc(-c2cc(CO)cc(C(=O)N[C@H](C)c3ccc(C)nc3)c2)c(C#N)c1 [Compound 290, (R)-2′-Cyano-5-(hydroxymethyl)-4′-methyl-N-(1-(6-methylpyridin-3-yl)ethyl)biphenyl-3-carboxamide] | < 100 nM | < 100 nM |  | 
2 | Cc1ccc(-c2cc(OCC3CCOC3)cc(C(=O)N[C@H](C)c3ccc(C)nc3)c2)c(C#N)c1 (stereo partly shown) [Compound 313] | < 100 nM | < 100 nM |  | 
3 | Cc1ccc(-c2cc(Oc3nc(C)cs3)cc(C(=O)N[C@H](C)c3ccc(C)nc3)c2)cc1 [Compound 381] | < 100 nM | < 100 nM |  | 
4 | Cc1ccc(-c2cc(C(=O)N[C@H](C)c3ccc(C)nc3)cc(C(C)O)c2)cc1 (stereo partly shown) [Compound 321] | < 100 nM | < 100 nM |  | 
5 | COc1ccc(CNC(=O)c2cc(-c3ccc(C)cc3)cc(S(C)(=O)=O)c2)cn1 [Compound 144] |  |  | < 100 nM | 100 to 500 nM
6 | Cc1ccc(-c2cc(OC3COCC3O)cc(C(=O)N[C@H](C)c3ccc(C)nc3)c2)c(C#N)c1 (stereo partly shown) [Compound 337] | < 100 nM | < 100 nM |  | 
7 | Cc1ccc(-c2cc(C(=O)NCc3ccc(C)nc3)cc(C(O)CN(C)CCO)c2)cc1 (stereo not shown) [Compound 368] | 501 to 1000 nM | < 100 nM |  | 
8 | Cc1ccc(-c2cc(C(=O)NCc3ccc(C(F)(F)F)nc3)cc(C(=O)N3CC[C@@H](O)C3)c2)nc1 [Compound 146] |  |  | < 100 nM | < 100 nM
9 | Cc1ccc(-c2cc(C(=O)NCc3ccc(C)nc3)cc(C(=O)N3CCCC3)c2)c(C#N)c1 [Compound 61] |  |  | < 100 nM | < 100 nM
10 | COCCOc1cc(C(=O)N[C@H](C)c2ccc(C)nc2)cc(-c2ccc(C)cc2C#N)c1 [Compound 252] | < 100 nM | < 100 nM |  | 
11 | COCC(CO)Oc1cc(C(=O)N[C@H](C)c2ccc(C)nc2)cc(-c2ccc(C)cc2C#N)c1 (stereo partly shown) [Compound 378] | < 100 nM | < 100 nM |  | 
12 | Cc1ccc(-c2cc(C(=O)NC(C)c3ccc(C)nc3)cc(C(=O)N3CCCC3)c2)nc1 (stereo not shown) [Compound 118] |  |  | < 100 nM | < 100 nM
13 | Cc1ccc(-c2cc(OCC3COCCO3)cc(C(=O)N[C@H](C)c3ccc(C)nc3)c2)cc1 (stereo partly shown) [Compound 326] | 100 to 500 nM | < 100 nM |  | 
14 | COc1ccc([C@@H](CO)NC(=O)c2cc(C(=O)N(C)CC(C)C)cc(-c3ccc(C)cc3)c2)cn1 [Compound 7, (S)—N3-(2-hydroxy-1-(6-methoxypyridin-3-yl)ethyl)-N5-isobutyl-N5,4′-dimethyl-biphenyl-3,5-dicarboxamide] |  |  | 100 to 500 nM | 100 to 500 nM
15 | Cc1ccc(-c2cc(C(=O)NCc3ccc(C)nc3)cc(C(=O)N3CC[C@@H](O)C3)c2)nc1 [Compound 179] |  |  | < 100 nM | < 100 nM
16 | Cc1ccc(-c2cc(C(=O)NCc3ccc(C)nc3)cc(C(=O)N(C)CC3CCNCC3)c2)cc1 [Compound 169] |  |  | 100 to 500 nM | 100 to 500 nM
17 | Cc1ccc(-c2cc(C(=O)NCc3ccc(Cl)nc3)cc(C(=O)N3CCCC3)c2)c(C#N)c1 [Compound 69] |  |  | < 100 nM | < 100 nM
18 | Cc1ccc(-c2cc(Oc3ccccn3)cc(C(=O)N[C@H](C)c3ccc(C)nc3)c2)nc1 [Compound 271] | < 100 nM | < 100 nM |  | 
19 | COc1ncc(CNC(=O)c2cc(C(=O)N3CC(O)C3)cc(-c3ccc(C)cc3)c2)cn1 [Compound 133] |  |  | 100 to 500 nM | < 100 nM
20 | Cc1ccc(-c2cc(C(=O)NCc3ccc(C)nc3)cc(C(=O)N3CCCC3)c2)cc1 [Compound 60] |  |  | < 100 nM | < 100 nM
21 | Cc1ccc(-c2cc(C(=O)NCc3cnc(C)nc3)cc(C(=O)N3CCC3)c2)cc1 [Compound 30] |  |  | < 100 nM | < 100 nM
22 | Cc1ccc(-c2cc(C(=O)N[C@H](C)c3cnc(C)nc3)cc(C(O)c3nccs3)c2)c(C#N)c1 (stereo partly shown) [Compound 293] | < 100 nM | < 100 nM |  | 

Row | Structure (SMILES) | IC50 (hP2X2/3H; [1]) | IC50 (hP2X3; [2]) | IC50 (hP2X2/3H; [3]) | IC50 (hP2X3; [4])
23 | Cc1ccc(CNC(=O)c2cc(C(=O)N3CCCC3)cc(-c3ccc(Br)cc3)c2)cn1 [Compound 200, 4′-Bromo-N-((6-methylpyridin-3-yl)methyl)-5-(pyrrolidine-1-carbonyl)biphenyl-3-carboxamide] | < 100 nM | < 100 nM |  | 
24 | Cc1ccc(-c2cc(C(=O)O)cc(C(=O)NCc3cnc(C)nc3)c2)cc1 [Compound 21, 4′-Methyl-5-((2-methylpyrimidin-5-yl)methylcarbamoyl)biphenyl-3-carboxylic acid] |  |  | > 1000 nM | 100 to 500 nM
25 | Cc1ccc(-c2cc(Oc3nccs3)cc(C(=O)NCc3cnc(C)nc3)c2)c(C#N)c1 [Compound 261] | 100 to 500 nM | < 100 nM |  | 
26 | Cc1ccc(-c2cc(OC3COCC3O)cc(C(=O)N[C@H](C)c3cnc(C)nc3)c2)nc1 (stereo partly shown) [Compound 364] | 100 to 500 nM | < 100 nM |  | 
27 | Cc1ccc(-c2cc(C(=O)NCc3ccc(C)nc3)cc(S(=O)(=O)N3CCCC3)c2)cc1 [Compound 105] |  |  | < 100 nM | < 100 nM
28 | Cc1ccc(-c2cc(C(=O)N[C@H](C)c3ccc(C(F)(F)F)nc3)cc(S(C)(=O)=O)c2)cc1 [Compound 35] |  |  | < 100 nM | < 100 nM
29 | Cc1ccc(-c2cc(C(=O)N[C@H](C)c3ccc(C(F)(F)F)nc3)cc(C(=O)N3CCCC3)c2)cc1 [Compound 46] |  |  | < 100 nM | 100 to 500 nM
30 | Cc1ccc(-c2cc(OCC(O)CO)cc(C(=O)N[C@H](C)c3ccc(C)nc3)c2)cc1 (stereo partly shown) [Compound 318] | < 100 nM | < 100 nM |  | 
31 | Cc1ccc(-c2cc(C(=O)N[C@H](CCO)c3ccc(C)nc3)cc(S(C)(=O)=O)c2)cc1 [Compound 205] | < 100 nM | < 100 nM |  | 
32 | Cc1ccc(-c2cc(C(=O)N[C@H](C)c3ccc(C)nc3)cc(C(O)C(F)(F)F)c2)c(C#N)c1 (stereo partly drawn) [Compound 295, 2′-Cyano-4′-methyl-N—((R)-1-(6-methylpyridin-3-yl)ethyl)-5-(2,2,2-trifluoro-1-hydroxyethyl)biphenyl-3-carboxamide] | < 100 nM | < 100 nM |  | 
33 | Cc1ccc(-c2cc(OC3CNCC3O)cc(C(=O)N[C@H](C)c3ccc(C)nc3)c2)c(C#N)c1 (stereo partly drawn) [Compound 338, 2′-Cyano-5-(4-hydroxypyrrolidin-3-yloxy)-4′-methyl-N—((R)-1-(6-methylpyridin-3-yl)ethyl)biphenyl-3-carboxamide] | 100 to 500 nM | < 100 nM |  | 
34 | Cc1ccc(-c2cc(OCCO)cc(C(=O)N[C@H](C)c3ccc(C)nc3)c2)nc1 [Compound 329] | 100 to 500 nM | < 100 nM |  | 
35 | Cc1ccc(-c2cc(C(=O)N[C@H](C)c3cnc(C)nc3)cc(C(=O)N3CC[C@@H](O)C3)c2)cc1 [Compound 157] |  |  | < 100 nM | < 100 nM
36 | Cc1ccc(-c2cc(S(=O)(=O)N3CCCC3)cc(C(=O)NCc3ccc(C)nc3)c2C)cc1 [Compound 68] |  |  | > 1000 nM | 100 to 500 nM
37 | Cc1ccc(-c2cc(C(=O)NCc3ncc(Cl)cc3Cl)cc(C(=O)N3CC(O)C3)c2)cc1 [Compound 134] |  |  | < 100 nM | < 100 nM
38 | Cc1ccc(-c2cc(C(=O)NCc3ccc(C)nc3)cc(C(=O)N3[C@H](C)CC[C@H]3C)c2)cc1 [Compound 195] |  |  | < 100 nM | < 100 nM
39 | Cc1ccc(-c2cc(C(=O)NCC(C)C)cc(C(=O)N[C@@H](C)CO)c2)cc1 [Compound 2, (S)—N3-(1-Hydroxypropan-2-yl)-N5-isobutyl-4′-methylbiphenyl-3,5-dicarboxamide] |  |  | > 1000 nM | 501 to 1000 nM
40 | Cc1ccc(-c2cc(C(=O)NCc3ccc(C)nc3)cc(C(=O)N3Cc4ccccc4C3)c2)cc1 [Compound 185, 5-(Isoindoline-2-carbonyl)-4′-methyl-N-((6-methylpyridin-3-yl)methyl)biphenyl-3-carboxamide] |  |  | 100 to 500 nM | 100 to 500 nM
41 | Cc1ccc(-c2cc(OC3COCC3O)cc(C(=O)N[C@H](C)c3ccc(C)nc3)c2)nc1 (stereo partly shown) [Compound 347] | 100 to 500 nM | < 100 nM |  | 
42 | Cc1ccc(-c2cc(Oc3ccccn3)cc(C(=O)N[C@H](C)c3ccc(C)nc3)c2)cc1 [Compound 242, (R)-4′-Methyl-N-(1-(6-methylpyridin-3-yl)ethyl)-5-(pyridin-2-yloxy)biphenyl-3-carboxamide] | < 100 nM | 100 to 500 nM |  | 
43 | Cc1ccc(-c2cc(Oc3nccs3)cc(C(=O)N[C@H](C)c3ccc(C)nc3)c2)cc1 [Compound 239] | < 100 nM | < 100 nM |  | 
44 | Cc1ccc(-c2cc(C(=O)NCc3ccc(C)nc3)cc(C(O)CN3CCCC3)c2)cc1 (stereo not shown) [Compound 230] | 100 to 500 nM | < 100 nM |  | 
